pIC50: −log10 of the molar value. Where two headings read alike, the source gives them in different places.
Tests used:
Assay type in all cases: biochemical
PI3K β (p110β/p85α) = molecular target: T1, PI3K β (p110β/p85α) (Homo sapiens, UniProt P42338); test: PI 3-Kinase (human) HTRF assay, PI3K β; settings: read-out: PI3K β IC50
T1 construct: purchased Upstate / Millipore Corporation

PI3K α (p110α/p85α) = molecular target: T2, PI3K α (p110α/p85α) (Homo sapiens, UniProt P42336); test: PI 3-Kinase (human) HTRF assay, PI3K α; settings: read-out: PI3K α IC50
T2 construct: purchased Upstate / Millipore Corporation
T2 sequence (P42336 whole entry): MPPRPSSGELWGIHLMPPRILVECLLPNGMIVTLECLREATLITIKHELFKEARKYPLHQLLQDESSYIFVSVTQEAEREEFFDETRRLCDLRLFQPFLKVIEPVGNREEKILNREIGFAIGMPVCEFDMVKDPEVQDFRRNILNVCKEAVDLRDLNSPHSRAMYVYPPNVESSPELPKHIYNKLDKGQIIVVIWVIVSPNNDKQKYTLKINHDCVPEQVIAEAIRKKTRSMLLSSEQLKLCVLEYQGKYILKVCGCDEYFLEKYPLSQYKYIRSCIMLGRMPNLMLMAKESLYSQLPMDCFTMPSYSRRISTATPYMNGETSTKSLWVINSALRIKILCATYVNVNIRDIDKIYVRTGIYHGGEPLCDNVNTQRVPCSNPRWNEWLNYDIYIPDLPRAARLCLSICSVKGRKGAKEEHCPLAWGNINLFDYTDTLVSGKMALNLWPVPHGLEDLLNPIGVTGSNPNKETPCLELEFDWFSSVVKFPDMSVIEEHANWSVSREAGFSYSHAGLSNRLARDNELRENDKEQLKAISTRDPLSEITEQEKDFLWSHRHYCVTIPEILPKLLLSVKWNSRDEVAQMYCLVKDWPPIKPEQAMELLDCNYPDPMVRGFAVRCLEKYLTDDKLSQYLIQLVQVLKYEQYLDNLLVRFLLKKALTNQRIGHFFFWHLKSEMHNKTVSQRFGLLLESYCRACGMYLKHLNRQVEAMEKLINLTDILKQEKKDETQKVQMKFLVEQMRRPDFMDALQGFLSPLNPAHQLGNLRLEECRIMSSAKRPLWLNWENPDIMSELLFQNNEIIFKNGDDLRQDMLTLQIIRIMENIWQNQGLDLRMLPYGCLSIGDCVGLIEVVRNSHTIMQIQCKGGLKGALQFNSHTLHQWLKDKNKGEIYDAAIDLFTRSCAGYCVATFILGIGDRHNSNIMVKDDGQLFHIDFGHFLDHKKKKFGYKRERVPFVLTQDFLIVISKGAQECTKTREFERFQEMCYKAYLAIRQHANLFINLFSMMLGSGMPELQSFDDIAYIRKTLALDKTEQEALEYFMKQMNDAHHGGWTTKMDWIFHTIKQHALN
T2 sequence (P27986 whole entry partner): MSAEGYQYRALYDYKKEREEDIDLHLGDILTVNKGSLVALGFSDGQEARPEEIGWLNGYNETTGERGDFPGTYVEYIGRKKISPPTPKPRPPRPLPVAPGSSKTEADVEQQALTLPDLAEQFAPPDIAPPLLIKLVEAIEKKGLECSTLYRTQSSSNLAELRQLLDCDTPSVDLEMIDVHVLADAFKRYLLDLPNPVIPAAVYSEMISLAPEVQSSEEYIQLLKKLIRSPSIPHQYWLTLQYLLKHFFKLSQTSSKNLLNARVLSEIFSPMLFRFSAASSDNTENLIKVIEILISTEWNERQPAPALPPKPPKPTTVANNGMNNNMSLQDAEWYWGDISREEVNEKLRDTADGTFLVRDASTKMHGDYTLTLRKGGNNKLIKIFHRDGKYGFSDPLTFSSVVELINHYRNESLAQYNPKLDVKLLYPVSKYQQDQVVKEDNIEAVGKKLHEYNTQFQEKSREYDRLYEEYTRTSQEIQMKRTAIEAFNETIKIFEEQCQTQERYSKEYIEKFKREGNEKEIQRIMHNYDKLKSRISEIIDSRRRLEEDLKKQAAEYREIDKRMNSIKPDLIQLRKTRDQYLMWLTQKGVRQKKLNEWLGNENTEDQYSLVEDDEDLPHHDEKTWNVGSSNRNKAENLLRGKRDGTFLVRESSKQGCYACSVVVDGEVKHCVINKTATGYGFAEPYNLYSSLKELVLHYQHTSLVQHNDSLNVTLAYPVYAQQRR

mTOR = molecular target: T3, mTOR (Homo sapiens, UniProt P42345); test: mTOR kinase inhibition assay (radiometric or LanthaScreen TR-FRET); settings: read-out: mTORC IC50
T3 construct: purchased Invitrogen
T3 sequence (P42345 1360-2549 limits assumed): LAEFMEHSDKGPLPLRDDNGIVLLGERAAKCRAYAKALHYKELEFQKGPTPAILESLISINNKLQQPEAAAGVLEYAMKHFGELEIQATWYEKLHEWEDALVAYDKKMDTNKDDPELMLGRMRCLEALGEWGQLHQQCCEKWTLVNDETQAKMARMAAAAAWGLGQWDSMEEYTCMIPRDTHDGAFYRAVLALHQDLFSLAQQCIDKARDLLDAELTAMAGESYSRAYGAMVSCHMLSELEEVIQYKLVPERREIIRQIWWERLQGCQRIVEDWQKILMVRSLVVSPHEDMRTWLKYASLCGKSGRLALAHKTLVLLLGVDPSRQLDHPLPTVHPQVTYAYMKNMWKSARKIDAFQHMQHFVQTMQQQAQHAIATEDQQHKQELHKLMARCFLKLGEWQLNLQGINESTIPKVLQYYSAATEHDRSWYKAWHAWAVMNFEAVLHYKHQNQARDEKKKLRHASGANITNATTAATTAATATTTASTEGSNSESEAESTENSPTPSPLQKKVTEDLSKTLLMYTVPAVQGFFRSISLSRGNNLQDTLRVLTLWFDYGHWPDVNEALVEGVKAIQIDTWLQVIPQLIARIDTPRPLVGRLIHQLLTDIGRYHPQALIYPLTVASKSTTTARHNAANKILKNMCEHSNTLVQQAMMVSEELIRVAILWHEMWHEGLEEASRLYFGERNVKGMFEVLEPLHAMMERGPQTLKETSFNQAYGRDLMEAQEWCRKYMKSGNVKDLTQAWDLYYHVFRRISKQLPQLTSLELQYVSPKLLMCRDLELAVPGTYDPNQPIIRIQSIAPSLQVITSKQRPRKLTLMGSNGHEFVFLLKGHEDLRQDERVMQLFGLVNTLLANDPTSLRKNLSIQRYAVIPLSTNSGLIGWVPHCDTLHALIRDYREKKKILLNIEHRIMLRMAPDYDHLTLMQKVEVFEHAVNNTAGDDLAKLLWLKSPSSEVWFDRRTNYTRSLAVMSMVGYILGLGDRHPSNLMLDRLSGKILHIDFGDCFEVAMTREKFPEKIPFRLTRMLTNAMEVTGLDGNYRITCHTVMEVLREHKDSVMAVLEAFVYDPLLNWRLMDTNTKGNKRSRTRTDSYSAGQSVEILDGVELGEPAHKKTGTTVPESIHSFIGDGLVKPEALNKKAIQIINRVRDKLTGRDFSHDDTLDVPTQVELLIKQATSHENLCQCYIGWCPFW
Method: The cross-activity or lack thereof of one or more compounds of the present invention against mTor can be measured according to any procedures known in the art or methods disclosed below.
The compounds described herein can be tested against recombinant mTOR (Invitrogen) in an assay containing 50 mM HEPES, pH 7.5, 1 mM EGTA, 10 mM MgCl2, 2.5 mM, 0.01% Tween, 10 μM ATP (2.5 μCi of μ-32P-ATP), and 3 μg/mL BSA. Rat recombinant PHAS-1/4EBP1 (Calbiochem; 2 mg/mL) is used as a substrate. Reactions are terminated by spotting onto nitrocellulose, which is washed with 1M NaCl/1% phosphoric acid (approximately 6 times, 5-10 minutes each). Sheets are dried and the transferred radioactivity quantitated by phosphorimaging.
For instance, one can use Invitrogen's LanthaScreen™ Kinase assay to test the inhibitors of mTOR disclosed herein. This assay is a time resolved FRET platform that measures the phosphorylation of GFP labeled 4EBP1 by mTOR kinase. The kinase reaction is performed in a white 384 well microtiter plate. The total reaction volume is 20 ul per well and the reaction buffer composition is 50 mM HEPES pH7.5, 0.01% Polysorbate 20, 1 mM EGTA, 10 mM MnCl2, and 2 mM DTT. In the first step, each well receives 2 ul of test compound in 20% dimethylsulphoxide resulting in a 2% DMSO final concentration. […] The plate is sealed and incubated for 1 hour at room temperature. […] The plate is sealed, incubated for 1 hour at room temperature, and then read on a plate reader set up for LanthaScreen™ TR-FRET. Data is analyzed and IC50s are generated using GraphPad Prism 5.

PI3K γ (p110γ) = molecular target: T4, PI3K γ (p110γ) (Homo sapiens, UniProt P48736); test: PI 3-Kinase (human) HTRF assay, PI3K γ; settings: read-out: PI3K γ IC50
T4 construct: purchased Upstate / Millipore Corporation

PI3K δ = molecular target: T5, PI3K δ (Homo sapiens, UniProt O00329); test: PI 3-Kinase (human) HTRF assay, PI3K δ; settings: read-out: PI3K δ IC50
T5 construct: purchased Upstate / Millipore Corporation

T1 sequence (P42338 whole entry): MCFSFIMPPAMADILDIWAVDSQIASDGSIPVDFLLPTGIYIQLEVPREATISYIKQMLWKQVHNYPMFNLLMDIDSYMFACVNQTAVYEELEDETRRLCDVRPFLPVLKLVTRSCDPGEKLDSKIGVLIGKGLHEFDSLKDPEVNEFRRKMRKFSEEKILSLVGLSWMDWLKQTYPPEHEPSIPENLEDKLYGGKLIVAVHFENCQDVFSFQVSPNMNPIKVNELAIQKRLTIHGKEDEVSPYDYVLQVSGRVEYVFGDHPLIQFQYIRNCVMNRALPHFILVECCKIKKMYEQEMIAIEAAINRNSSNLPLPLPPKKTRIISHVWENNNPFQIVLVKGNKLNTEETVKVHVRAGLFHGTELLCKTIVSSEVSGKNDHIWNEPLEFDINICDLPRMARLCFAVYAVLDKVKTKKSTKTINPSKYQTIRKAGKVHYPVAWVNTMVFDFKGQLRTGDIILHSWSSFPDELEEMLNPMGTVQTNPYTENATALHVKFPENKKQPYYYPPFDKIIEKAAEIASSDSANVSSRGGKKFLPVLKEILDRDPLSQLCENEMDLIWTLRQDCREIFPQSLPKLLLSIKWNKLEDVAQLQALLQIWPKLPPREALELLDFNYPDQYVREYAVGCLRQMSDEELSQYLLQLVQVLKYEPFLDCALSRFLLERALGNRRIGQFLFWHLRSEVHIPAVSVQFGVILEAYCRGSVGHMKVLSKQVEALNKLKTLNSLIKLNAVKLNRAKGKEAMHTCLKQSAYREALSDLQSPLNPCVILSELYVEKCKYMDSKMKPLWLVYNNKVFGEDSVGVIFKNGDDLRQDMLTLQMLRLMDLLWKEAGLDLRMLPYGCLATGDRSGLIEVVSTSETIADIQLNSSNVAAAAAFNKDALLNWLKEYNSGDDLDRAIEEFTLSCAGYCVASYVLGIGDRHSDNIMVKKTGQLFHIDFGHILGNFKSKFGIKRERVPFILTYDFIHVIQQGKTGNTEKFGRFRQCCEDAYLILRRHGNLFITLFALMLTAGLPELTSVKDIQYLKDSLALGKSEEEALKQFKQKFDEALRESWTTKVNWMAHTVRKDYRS
T1 sequence (P27986 whole entry partner): as the sequence (P27986 whole entry partner) above

Row | Compound | pIC50 (PI3K β (p110β/p85α)) | pIC50 (PI3K α (p110α/p85α)) | pIC50 (mTOR) | pIC50 (PI3K γ (p110γ)) | pIC50 (PI3K δ) | pIC50 (PI3K β (p110β/p85α); Table 4 (PI3K α inhibitors)) | pIC50 (PI3K α (p110α/p85α); Table 4 (PI3K α inhibitors)) | pIC50 (mTOR; Table 4 (PI3K α inhibitors)) | pIC50 (PI3K γ (p110γ); Table 4 (PI3K α inhibitors)) | pIC50 (PI3K δ; Table 4 (PI3K α inhibitors))
1 | Nc1nc2ccc(-c3ccc4nccc(-c5ccncc5)c4c3)cc2s1 [Compound 3] | < 5.00 | > 7.00 | > 6.00 | > 6.00 | > 6.00 |  |  |  |  | 
2 | Nc1ccc2cc(-c3ccc4nccc(-c5ccncc5)c4c3)ccc2n1 [Compound 5] | < 5.00 | > 6.00 | > 6.00 | > 6.00 | > 5.00 |  |  |  |  | 
3 | Nc1ncnc2ccc(-c3ccc4nccc(-c5ccncc5)c4c3)cc12 [Compound 8] | < 5.00 | > 5.00 | < 5.00 | > 6.00 |  |  |  |  |  | 
4 | Nc1ncc2cc(-c3ccc4nccc(-c5ccncc5)c4c3)ccc2n1 [Compound 9] | > 5.00 | > 6.00 | < 5.00 | > 6.00 |  |  |  |  |  | 
5 | Cn1cc(-c2ccnc3ccc(-c4ccc5oc(N)nc5c4)cc23)cn1 [Compound 26] |  | > 7.00 | > 6.00 | > 7.00 | > 7.00 |  |  |  |  | 
6 | Nc1nc2cc(-c3ccc4nccn4c3)ccc2o1 [Compound 40] |  | > 5.00 | > 5.00 | > 5.00 | < 5.00 |  |  |  |  | 
7 | CN1CCN(C(=O)c2cnc3ccc(-c4ccc5oc(N)nc5c4)cn23)CC1 [Compound 44] |  | > 7.00 | > 5.00 | > 5.00 | > 5.00 |  |  |  |  | 
8 | N#Cc1cnc2ccc(-c3ccc4oc(N)nc4c3)cc2c1-c1ccncc1 [Compound 46] |  | > 7.00 | > 7.00 | > 7.00 | > 7.00 |  |  |  |  | 
9 | Nc1nc2cc(-c3ccc4ncn(C5CCOCC5)c(=O)c4c3)ccc2o1 [Compound 55] |  | > 6.00 | < 5.00 | < 5.00 | < 5.00 |  |  |  |  | 
10 | CC(=O)N1CCC(Nc2ncnc3ccc(-c4ccc5oc(N)nc5c4)cc23)CC1 [Compound 60] | > 5.00 | > 7.00 | > 6.00 | > 7.00 | > 6.00 |  |  |  |  | 
11 | Nc1nc2cc(-c3ccn4ncc(-c5ccncc5)c4n3)ccc2o1 [Compound 62] | > 7.00 | > 7.00 | > 7.00 | > 7.00 | > 7.00 |  |  |  |  | 
12 | Nc1nc2cc(-c3ccc4ncc(=O)[nH]c4c3)ccc2o1 [Compound 72] | > 6.00 | > 7.00 | > 6.00 | > 7.00 | < 5.00 |  |  |  |  | 
13 | CC(C)N1CCC(n2cnc3ccc(-c4ccc5oc(N)nc5c4)cc3c2=O)CC1 [Compound 74] | > 5.00 | > 7.00 | > 5.00 | > 5.00 | < 5.00 |  |  |  |  | 
14 | Nc1nc2cc(-c3ccc4ncc(-c5cccnc5)nc4c3)ccc2o1 [Compound 76] | < 5.00 | > 7.00 | > 5.00 | > 6.00 | < 5.00 |  |  |  |  | 
15 | N#Cc1cnc2ccc(-c3ccc4oc(N)nc4c3)cc2c1 [Compound 93] | < 5.00 | > 6.00 | > 5.00 | > 6.00 | < 5.00 |  |  |  |  | 
16 | CCOC(=O)N1CCN(c2cnc3ccc(-c4ccc5oc(N)nc5c4)cc3n2)CC1 [Compound 119] | > 5.00 | > 7.00 | > 5.00 | > 5.00 | > 5.00 |  |  |  |  | 
17 | Nc1nc2cc(-c3ccc4ncc(N5CCN(C(=O)[C@@H]6CCCN6)CC5)nc4c3)ccc2o1 [Compound 121] | > 7.00 | > 7.00 | < 5.00 | > 7.00 | > 7.00 |  |  |  |  | 
18 | CS(=O)(=O)N1CCN(Cc2cc3nc(-c4ccc5oc(N)nc5c4)nc(N4CCOCC4)c3s2)CC1 [Compound 129] | > 6.00 | > 7.00 | > 6.00 | > 7.00 | > 6.00 |  |  |  |  | 
19 | Nc1nc2cc(-c3ccc4ncc(NCCN5CCOCC5)nc4c3)ccc2o1 [Compound 133] | > 6.00 | > 7.00 | < 5.00 | > 6.00 | > 6.00 |  |  |  |  | 
20 | Nc1nc2cc(-c3ccc4ncc(N5CCNC(=O)C5)nc4c3)ccc2o1 [Compound 135] | > 6.00 | > 7.00 | < 5.00 | > 6.00 | < 5.00 |  |  |  |  | 
21 | CN(C)CC(=O)N1CCN(c2cnc3ccc(-c4ccc5oc(N)nc5c4)cc3n2)CC1 [Compound 139] | > 6.00 | > 7.00 | < 5.00 | > 6.00 | > 6.00 |  |  |  |  | 
22 | CN1CC(C(=O)N2CCN(c3cnc4ccc(-c5ccc6oc(N)nc6c5)cc4n3)CC2)C1 [Compound 156] | > 6.00 | > 7.00 | < 5.00 | > 6.00 | > 6.00 |  |  |  |  | 
23 | Nc1nc2cc(-c3ccc4ncc(N5CC(C(=O)N6CCOCC6)C5)nc4c3)ccc2o1 [Compound 169] | > 6.00 | > 7.00 | > 5.00 | > 6.00 | > 6.00 |  |  |  |  | 

Row | Compound | pIC50 (PI3K β (p110β/p85α)) | pIC50 (PI3K α (p110α/p85α)) | pIC50 (mTOR) | pIC50 (PI3K γ (p110γ)) | pIC50 (PI3K δ) | pIC50 (PI3K β (p110β/p85α); Table 4 (PI3K α inhibitors)) | pIC50 (PI3K α (p110α/p85α); Table 4 (PI3K α inhibitors)) | pIC50 (mTOR; Table 4 (PI3K α inhibitors)) | pIC50 (PI3K γ (p110γ); Table 4 (PI3K α inhibitors)) | pIC50 (PI3K δ; Table 4 (PI3K α inhibitors))
24 | CN1CCN(C(=O)C2CN(c3cnc4ccc(-c5ccc6oc(N)nc6c5)cc4n3)C2)CC1 [Compound 170] | > 6.00 | > 7.00 | > 5.00 | > 5.00 | > 6.00 |  |  |  |  | 
25 | Nc1nc2cc(-c3ccc4ncc(N5CCC(N6CCOCC6)CC5)nc4c3)ccc2o1 [Compound 171] | > 6.00 | > 7.00 | < 5.00 | > 6.00 | > 6.00 |  |  |  |  | 
26 | Nc1ncc(-c2ccc3oc(N)nc3c2)cn1 [Compound 233] | < 5.00 | < 5.00 | < 5.00 | > 5.00 | < 5.00 |  |  |  |  | 
27 | CC(=O)Nc1cn2cc(-c3ccc4oc(N)nc4c3)ccc2n1 [Compound 234] | > 6.00 | > 7.00 | > 6.00 | > 7.00 | > 7.00 |  |  |  |  | 
28 | CC(=O)Nc1ncc(-c2ccc3oc(N)nc3c2)s1 [Compound 235] | < 5.00 | > 5.00 | > 5.00 | > 5.00 | > 5.00 |  |  |  |  | 
29 | Nc1nc2cc(-c3cccc4[nH]nc(N)c34)ccc2o1 [Compound 236] | < 5.00 | < 5.00 | < 5.00 | < 5.00 |  |  |  |  |  | 
30 | CC(C)Oc1nc(-c2ccc3oc(N)nc3c2)cnc1N [Compound 237] | > 5.00 | > 5.00 | > 6.00 | > 5.00 |  |  |  |  |  | 
31 | Nc1nc2cc(-c3ccc4nc(N)oc4c3)ccc2o1 [Compound 241] |  | > 6.00 | > 5.00 | > 7.00 | > 6.00 |  |  |  |  | 
32 | Nc1nc2cc(-c3ccc4ncc(N5CC[C@H](O)C5)nc4c3)ccc2o1 [Compound 262] | > 6.00 | > 7.00 | > 5.00 | > 6.00 | < 5.00 |  |  |  |  | 
33 | C[C@@H]1CN(C(=O)C2CN(c3cnc4ccc(-c5ccc6oc(N)nc6c5)cc4n3)C2)CCN1 [Compound 267] | > 5.00 | > 7.00 | > 5.00 | > 6.00 | > 6.00 |  |  |  |  | 
34 | Nc1nc2cc(-c3ccc4ncc(N5CC(C(=O)N6CCN(C7CC7)CC6)C5)nc4c3)ccc2o1 [Compound 276] | > 5.00 | > 7.00 | > 5.00 | > 6.00 | > 6.00 |  |  |  |  | 
35 | CN1CCN(c2cnc3ccc(-c4ccc5oc(N)nc5c4)cc3n2)CC1=O [Compound 277] | > 6.00 | > 7.00 | > 5.00 | > 6.00 | > 5.00 |  |  |  |  | 
36 | Nc1nc2cc(-c3ccc4ncc(N5CC(N6CC[C@H](O)C6)C5)nc4c3)ccc2o1 [Compound 322] | > 6.00 | > 7.00 | < 5.00 | > 6.00 |  |  |  |  |  | 
37 | CC1(C)CN(C2CN(c3cnc4ccc(-c5ccc6oc(N)nc6c5)cc4n3)C2)CCN1 [Compound 388] | > 6.00 | > 7.00 | > 7.00 |  | > 6.00 |  |  |  |  | 
38 | CS(=O)(=O)Nc1cc(-c2ccc3ncc(C(=O)N4CCOCC4)n3c2)cnc1Cl [Compound 418] | > 7.00 | > 7.00 | > 7.00 |  | > 7.00 |  |  |  |  | 
39 | C[C@@H]1CN(C2CN(c3cnc4ccc(-c5ccc6oc(N)nc6c5)nc4n3)C2)CCN1 [Compound 563] |  |  |  |  |  | < 5.00 | > 7.00 | < 5.00 | < 5.00 | 
40 | C[C@H]1CN(c2cnc3ccc(-c4ccc5oc(N)nc5c4)nc3c2)CCN1 [Compound 598] |  |  |  |  |  | > 7.00 | > 7.00 | < 5.00 | > 6.00 | 
41 | Nc1nc2cc(-c3ccc4ncc(N5CC(N6CCOCC6)C5)cc4n3)ccc2o1 [Compound 604] |  |  |  |  |  |  | > 7.00 | < 5.00 | > 6.00 | 
42 | CC1(C)CN(C2CN(c3cnc4ccc(-c5ccc6oc(N)nc6c5)nc4c3)C2)CCN1 [Compound 609] |  |  |  |  |  |  | > 7.00 | < 5.00 | > 6.00 | > 6.00
43 | Cc1nccn1C1CN(c2cnc3ccc(-c4ccc5oc(N)nc5c4)nc3c2)C1 [Compound 614] |  |  |  |  |  |  | > 7.00 | < 5.00 | > 7.00 | > 6.00
44 | CN1CCN(C2CN(c3cnc4ccc(-c5ccc6oc(N)nc6c5)nc4c3)C2)CC1=O [Compound 615] |  |  |  |  |  |  | > 7.00 | > 5.00 | > 7.00 | > 6.00
45 | Nc1nc2cc(-c3ccc4ncc(N5CC(N6CCN(CCO)CC6)C5)cc4n3)ccc2o1 [Compound 616] |  |  |  |  |  |  | > 7.00 | < 5.00 | > 6.00 | > 6.00
46 | CCN1CCN(C2CN(c3cnc4ccc(-c5ccc6oc(N)nc6c5)nc4c3)C2)CC1 [Compound 626] |  |  |  |  |  | > 6.00 | > 7.00 | < 5.00 |  | > 6.00
